Where two headings read alike, the source gives them in different places. Where a SMILES comes first, the peptide text is derived from it. Where only a bound is given, the exact number is not on record here.

The target of test [1] is T1, TPO-R (Homo sapiens, UniProt P40238).
T1 construct: made in house
T1 sequence (P40238 26-491 limits assumed): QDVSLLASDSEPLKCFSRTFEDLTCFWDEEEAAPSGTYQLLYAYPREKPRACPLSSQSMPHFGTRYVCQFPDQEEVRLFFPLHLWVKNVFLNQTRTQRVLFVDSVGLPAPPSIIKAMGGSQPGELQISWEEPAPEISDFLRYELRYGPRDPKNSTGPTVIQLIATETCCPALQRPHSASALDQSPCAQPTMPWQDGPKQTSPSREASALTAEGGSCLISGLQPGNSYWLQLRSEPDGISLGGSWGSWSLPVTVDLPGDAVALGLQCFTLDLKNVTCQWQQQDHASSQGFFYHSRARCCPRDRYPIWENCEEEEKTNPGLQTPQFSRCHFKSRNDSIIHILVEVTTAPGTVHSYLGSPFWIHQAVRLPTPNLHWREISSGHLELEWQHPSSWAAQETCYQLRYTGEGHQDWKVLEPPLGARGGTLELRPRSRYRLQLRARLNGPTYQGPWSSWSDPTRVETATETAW
Put plainly: Competition binding assay (equilibrium binding ELISA, MBP-TPO156 tracer) on immobilized TPO-R. To be noted: read-out: IC50. As to the method:
A variety of methods can be used to evaluate IC50 values. For example, an equilibrium binding ELISA assay, using either MBP-TPO or lacI-peptide tracer, was used to determine whether the peptides inhibit the binding of TPO to the extracellular domain of the TPO receptor. Typically, the IC50 value were determined using the free peptide. The IC50 value can be determined using the free peptide, which optionally can be C-terminally amidated, or can be prepared as an ester or other carboxy amide.
Binding affinities of chemically synthesized peptides for TPO-R were measured in a competition binding assay. The wells of a microtiter plate were coated with 1 mg streptavidin, blocked with PBS/1% BSA, followed by 50 ng of biotinylated anti-receptor immobilizing antibody (Ab179). The wells were then treated with a 1:10 dilution of soluble TPO-R harvest. Various concentrations of peptide or peptide mimetic were mixed with a constant amount of a truncated form of TPO consisting of residues 1-156 fused to the C-terminus of maltose binding protein (MBP-TPO156). The peptide MBP-TPO156 mixtures were added to the TPO-R coated wells, incubated for 2 hours at 4° C. and then washed with PBS. The amount of MBP-TPO156 that was bound at equilibrium was measured by adding a rabbit anti-sera directed against MBP, followed by alkaline phosphatase conjugated goat anti-rabbit IgG. The amount of alkaline phosphatase in each well was then determined using standard methods.
The assay is conducted over a range of peptide concentrations and the results are graphed such that the y axis represents the amount of bound MBP-TPO156 and the x axis represents the concentration of peptide or peptide mimetic.
(In general: An ELISA detects its analyte on a solid surface through an enzyme-linked reagent.)

The target in test [2] is T2, TPO receptor (Homo sapiens, UniProt P40238).
T2 sequence (P40238 26-635): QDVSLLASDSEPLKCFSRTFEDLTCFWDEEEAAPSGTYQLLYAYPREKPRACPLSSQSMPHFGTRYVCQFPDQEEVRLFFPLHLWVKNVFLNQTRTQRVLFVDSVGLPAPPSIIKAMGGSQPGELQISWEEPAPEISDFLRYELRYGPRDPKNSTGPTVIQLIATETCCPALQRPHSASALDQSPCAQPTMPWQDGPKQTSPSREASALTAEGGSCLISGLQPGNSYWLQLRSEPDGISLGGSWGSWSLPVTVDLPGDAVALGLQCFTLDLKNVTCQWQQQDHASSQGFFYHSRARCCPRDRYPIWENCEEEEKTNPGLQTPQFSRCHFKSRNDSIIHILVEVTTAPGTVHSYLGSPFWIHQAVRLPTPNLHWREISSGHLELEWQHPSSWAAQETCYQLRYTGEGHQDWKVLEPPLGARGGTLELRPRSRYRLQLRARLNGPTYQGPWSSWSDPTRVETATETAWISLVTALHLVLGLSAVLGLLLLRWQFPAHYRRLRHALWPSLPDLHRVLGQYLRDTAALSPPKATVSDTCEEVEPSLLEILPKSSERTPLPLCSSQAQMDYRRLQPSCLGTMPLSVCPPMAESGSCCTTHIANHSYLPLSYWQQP
Put plainly: Microphysiometer assay: rate of acidification of extracellular medium on TPO receptor stimulation. The test is classed as cell-based.
Protocol: In this example cyclized compounds were subjected to three assays. […] Finally, a microphysiometer (Molecular Devices Corp.) assay was performed. […] The ranges for EC50 are symbolically indicated as for IC50 described above.

Test [3] addresses T3, human TPO-R (transfected Ba/F3 cells) (Homo sapiens, UniProt P40238).
T3 construct: Murine IL-3 dependent Ba/F3 cells were transfected with full length human TPO-R; expressed in transfected cells; host or cells: murine Ba/F3 cells
T3 sequence (P40238 26-635): T2 sequence (P40238 26-635)
As to the kind of experiment: Thrombopoietin dependent cell proliferation assay (MTT), TPO-R transfected Ba/F3 cells. The test is classed as cell-based.
Protocol: Bioactivity of the peptides can be measured using a thrombopoietin dependent cell proliferation assay. Murine IL-3 dependent Ba/F3 cells were transfected with full length human TPO-R. In the absence of IL-3 (WEHI-3 conditioned media), these cells are dependent on TPO for proliferation.
The cells were grown in complete RPMI-10 media, containing 10% WEHI-3 conditioned media, then washed twice in PBS, resuspended in media which lacked WEHI-3 conditioned media, and added to wells containing dilutions of peptide or TPO at 2×10^4 cells/well. The cells were incubated for 48 hours at 37° C. in a humidified 5% CO2 atmosphere and metabolic activity was assayed by the reduction of MTT to formazan, with absorbance at 570 nm measured on an ELISA plate reader.

Setting [4] is: Table 7, dimer compounds, read-out: EC50 (nM) Microonys.
[5] abbreviates: Table 4, cyclized compounds, read-out: EC50 (nM) Proliferation.
[6] abbreviates: Table 4, cyclized compounds, microphysiometer, read-out: EC50 (nM) Microonys.

The IC50 is the concentration needed to halve the response being measured. As for `CC(C)C[C@H](NC(=O)[C@H](Cc1c[nH]c2ccccc12)NC(=O)[C@H](CCC(N)=O)NC(=O)[C@H](CCCNC(=N)N)NC(=O)[C@H](CC(C)C)NC(=O)[C@@H](NC(=O)[C@@H]1CCCN1C(=O)CNC(=O)[C@H](CCC(=O)O)NC(=O)[C@@H](N)CCCCN)[C@@H](C)O)C(=O)N[C@@H](C)C(=O)N[C@@H](C)C(=O)N[C@@H](CCCNC(=N)N)C(=O)N[C@@H](C)C(=O)NCCCC[C@H](NC(=O)CCNC(=O)[C@H](C)NC(=O)[C@H](CCCNC(=N)N)NC(=O)[C@H](C)NC(=O)[C@H](C)NC(=O)[C@H](CC(C)C)NC(=O)[C@H](Cc1c[nH]c2ccccc12)NC(=O)[C@H](CCC(N)=O)NC(=O)[C@H](CCCNC(=N)N)NC(=O)[C@H](CC(C)C)NC(=O)[C@@H](NC(=O)[C@@H]1CCCN1C(=O)CNC(=O)[C@H](CCC(=O)O)NC(=O)[C@@H](N)CCCCN)[C@@H](C)O)C(N)=O`, the IC50 in test [1] (Table 7, dimer compounds) was at most 0.5 µM. Also, the EC50 in test [2] (setting [4]) is under 500 nM.
Regarding `CC[C@H](C)[C@@H]1NC(=O)[C@H](Cc2c[nH]c3ccccc23)NC(=O)[C@H](CCC(=O)O)NC(=O)[C@H](CCCNC(=N)N)NC(=O)[C@H](CC(C)C)NC(=O)[C@H]([C@@H](C)O)NC(=O)[C@@H]2CCCN2C(=O)CNC(=O)[C@H](CC(=O)O)NC(=O)[C@H](C)NC(=O)C(c2ccccc2)SC[C@@H](C(N)=O)NC(=O)[C@H](Cc2ccccc2)NC(=O)[C@H](CO)NC1=O` (some centres unmarked) (HELM PEPTIDE1{A.D.G.P.T.L.R.E.W.I.S.F.C.[am]}|CHEM1{[O=C(C(c1ccccc1)[*:2])[*:1]]}$PEPTIDE1,CHEM1,1:R1-1:R1|PEPTIDE1,CHEM1,13:R3-1:R2$$$V2.0), the EC50 in test [3] (setting [5]) is under 500 nM; in test [2] (setting [6]) it was under 200000 nM. Besides, in test [1] (Table 4, cyclized compounds), the IC50 is at most 0.5 µM.
With `CC[C@H](C)[C@@H]1NC(=O)[C@H](Cc2c[nH]c3ccccc23)NC(=O)[C@H](CCC(=O)O)NC(=O)[C@H](CCCNC(=N)N)NC(=O)[C@H](CC(C)C)NC(=O)[C@H]([C@@H](C)O)NC(=O)[C@@H]2CCCN2C(=O)CNC(=O)[C@H](CC(=O)O)NC(=O)[C@H](C)NC(=O)CC[C@@H](C(N)=O)NC(=O)[C@H](Cc2ccccc2)NC(=O)[C@H](CO)NC1=O` (HELM PEPTIDE1{A.D.G.P.T.L.R.E.W.I.S.F.E.[am]}$PEPTIDE1,PEPTIDE1,1:R1-13:R3$$$V2.0), the EC50 in test [3] (setting [5]) and in test [2] (setting [6]) was under 200000 nM throughout. Besides, the IC50 in test [1] (Table 4, cyclized compounds) was at most 200 µM.
For `CC[C@H](C)[C@@H]1NC(=O)[C@H](Cc2c[nH]c3ccccc23)NC(=O)[C@H](CCC(=O)O)NC(=O)[C@H](CCCNC(=N)N)NC(=O)[C@H](CC(C)C)NC(=O)[C@H]([C@@H](C)O)NC(=O)[C@@H]2CCCN2C(=O)CNC(=O)[C@H](CC(=O)O)NC(=O)[C@H](C)NC(=O)C[S+]([O-])C[C@@H](C(N)=O)NC(=O)[C@H](Cc2ccccc2)NC(=O)[C@H](CO)NC1=O` (some centres unmarked) (HELM PEPTIDE1{A.D.G.P.T.L.R.E.W.I.S.F.[O=C([C@H](C[S+]([O-])CC(=O)[*:3])N[*:1])[*:2]].[am]}$PEPTIDE1,PEPTIDE1,1:R1-13:R3$$$V2.0), the EC50 in test [3] (setting [5]) and in test [2] (setting [6]) was under 200000 nM each time. Further, the IC50 in test [1] (Table 4, cyclized compounds) is at most 200 µM.
Consider `CC[C@H](C)[C@H](NC(=O)[C@H](Cc1c[nH]c2ccccc12)NC(=O)[C@H](CCC(=O)O)NC(=O)[C@H](CCCNC(=N)N)NC(=O)[C@H](CC(C)C)NC(=O)[C@@H](NC(=O)[C@@H]1CCCN1C(=O)CNC(=O)[C@H](CC(=O)O)NC(=O)[C@H](C)NC(=O)[C@@H](N)CSSC[C@H](N)C(=O)N[C@@H](C)C(=O)N[C@@H](CC(=O)O)C(=O)NCC(=O)N1CCC[C@H]1C(=O)N[C@H](C(=O)N[C@@H](CC(C)C)C(=O)N[C@@H](CCCNC(=N)N)C(=O)N[C@@H](CCC(=O)O)C(=O)N[C@@H](Cc1c[nH]c2ccccc12)C(=O)N[C@H](C(=O)N[C@@H](CO)C(=O)N[C@@H](Cc1ccccc1)C(N)=O)[C@@H](C)CC)[C@@H](C)O)[C@@H](C)O)C(=O)N[C@@H](CO)C(=O)N[C@@H](Cc1ccccc1)C(N)=O` (HELM PEPTIDE1{C.A.D.G.P.T.L.R.E.W.I.S.F.[am]}|PEPTIDE2{C.A.D.G.P.T.L.R.E.W.I.S.F.[am]}$PEPTIDE1,PEPTIDE2,1:R3-1:R3$$$V2.0), for which the EC50 was under 500 nM in test [3] (Table 7, dimer compounds, read-out: EC50 (nM) Prolif.) and under 500 nM in test [2] (setting [4]). The IC50 in test [1] (Table 7, dimer compounds) was at most 0.5 µM.
For the molecule `CC[C@H](C)[C@H](NC(=O)[C@@H](N)CSSC[C@H](N)C(=O)N[C@H](C(=O)N[C@@H](CCC(=O)O)C(=O)NCC(=O)N1CCC[C@H]1C(=O)N[C@H](C(=O)N[C@@H](CC(C)C)C(=O)N[C@@H](CCCNC(=N)N)C(=O)N[C@@H](CCC(N)=O)C(=O)N[C@@H](Cc1c[nH]c2ccccc12)C(=O)N[C@@H](CC(C)C)C(=O)N[C@@H](C)C(=O)N[C@@H](C)C(=O)N[C@@H](CCCNC(=N)N)C(=O)N[C@@H](C)C(N)=O)[C@@H](C)O)[C@@H](C)CC)C(=O)N[C@@H](CCC(=O)O)C(=O)NCC(=O)N1CCC[C@H]1C(=O)N[C@H](C(=O)N[C@@H](CC(C)C)C(=O)N[C@@H](CCCNC(=N)N)C(=O)N[C@@H](CCC(N)=O)C(=O)N[C@@H](Cc1c[nH]c2ccccc12)C(=O)N[C@@H](CC(C)C)C(=O)N[C@@H](C)C(=O)N[C@@H](C)C(=O)N[C@@H](CCCNC(=N)N)C(=O)N[C@@H](C)C(N)=O)[C@@H](C)O` (HELM PEPTIDE1{C.I.E.G.P.T.L.R.Q.W.L.A.A.R.A.[am]}|PEPTIDE2{C.I.E.G.P.T.L.R.Q.W.L.A.A.R.A.[am]}$PEPTIDE1,PEPTIDE2,1:R3-1:R3$$$V2.0), the IC50 in test [1] (Table 7, dimer compounds) was at most 0.5 µM. Also, the EC50 in test [2] (setting [4]) was under 500 nM.
Regarding `CC[C@H](C)[C@@H]1NC(=O)[C@H](Cc2c[nH]c3ccccc23)NC(=O)[C@H](CCC(=O)O)NC(=O)[C@H](CCCNC(=N)N)NC(=O)[C@H](CC(C)C)NC(=O)[C@H]([C@@H](C)O)NC(=O)[C@@H]2CCCN2C(=O)[C@@H](N)CSSC[C@@H](C(N)=O)NC(=O)[C@H](Cc2ccccc2)NC(=O)[C@H](CO)NC1=O` [ADG-deletion] (HELM PEPTIDE1{C.P.T.L.R.E.W.I.S.F.C.[am]}$PEPTIDE1,PEPTIDE1,1:R3-11:R3$$$V2.0; N-terminus and C-terminus assumed), the IC50 in test [1] (Table 5) is at most 200 µM. For the same molecule, the EC50 in test [2] (Table 5, value in parentheses, read-out: EC50 (nM), microphysiometer results given in parentheses) is under 200000 nM.
`CC[C@H](C)[C@@H]1NC(=O)[C@H](Cc2c[nH]c3ccccc23)NC(=O)[C@H](CCC(=O)O)NC(=O)[C@H](CCCNC(=N)N)NC(=O)[C@H](CC(C)C)NC(=O)[C@H]([C@@H](C)O)NC(=O)[C@@H]2CCCN2C(=O)CNC(=O)[C@H](CC(=O)O)NC(=O)[C@H](C)NC(=O)CSC[C@@H](C(=O)O)NC(=O)[C@H](Cc2ccccc2)NC(=O)[C@H](CO)NC1=O` [free acid form] (HELM PEPTIDE1{[O=C(C[*:3])[*:2]].A.D.G.P.T.L.R.E.W.I.S.F.C}$PEPTIDE1,PEPTIDE1,1:R3-14:R3$$$V2.0): the EC50 in test [3] (Table 6, read-out: EC50 (nM) Cell Prolif.) was under 500 nM; in test [2] (Table 6, value in parentheses, read-out: EC50 (nM), microphysiometer results in parentheses) it was under 200000 nM.

Source of the values: patent publication US8227422B2, “Peptides and compounds that bind to a receptor” (Glaxosmithkline LLC, priority 1996, dated 2012).
